Results on one compound are retold here after patent publication US20130136772A1, “REGULATION OF IMMUNE RESPONSE BY COLOCYNTHIN AND/OR ITS DERIVATIVES” (priority 2010, published 2013).

The subject of one assay is IL-4. Briefly: Intracellular IL-4 expression in SRBC immunised mice. The assay is classed as in vivo, Swiss albino mice. The conditions noted are these: graded doses; significantly inhibited at 2.5, 5 and 10 mg/kg. Here is the method:
Estimation of intracellular cytokines: The animals were immunized as mentioned above. After 6 days of drug administration, the animals were challenged on day 7. After 48 h of challenge, the blood was collected in the tubes containing EDTA (anti-coagulant) from retro-orbital plexes of animals to determine the effect of test material on the expression of intracellular IL-2 and IFN-γ (Th1) and IL-4 (Th2) cytokines. In this study, PE labeled IL-2 monoclonal antibody was used in one set and PE labeled IFN-γ and FITC labelled IL-4 monoclonal antibody was used in the other set of experimentation (FIG. 7, 8, 9).

Assay [1] relates to TNF-α. Briefly: Intracellular TNF-α estimation in LPS activated murine neutrophils by flowcytometry. The assay is classed as cell-based. Particulars: for Expression of intracellular TNF-alpha, Mean ± S.E: LPS 10 ng/ml, 3 h. The protocol: Flowcytometric studies were carried out to determine the anti-inflammatory effect of AD-B-63B on TNF-α cytokine expression in LPS activated murine neutrophils. Neutrophils play essential roles in host defence through their ability to clear bacterial infections. Their inappropriate activation contributes to a variety of inflammatory diseases, from the acute respiratory distress syndrome to asthma, chronic obstructive pulmonary disease and rheumatoid arthritis. TNF-α was chosen as the target for anti-inflammatory activity because of the fact that it is a pro-inflammatory cytokine and plays a major role in the pathogenesis of septic shock induced by LPS (Lipopolysaccharide) endotoxin injection [Remick, D. G.; Strieter, R. M.; Eskandari, M. K.; Nguyen, D. T.; Genord, M. A.; Raiford, C. L. Am. J. Path. 1990, 136, 49.]. LPS is an important triggering factor for in vivo systemic inflammatory response [Bone, R. C. Chest 1991, 100, 802]. LPS activates neutrophils via engagement of TLR4 (Toll-like receptor 4),[Sabroe, I.; Read, R. C.; Whyte, M. K. B.; Dockrell, D. H.; Vogel, S. N.; Dower, S. K. J. Immunol. 2003, 171, 1630.] resulting in the induction of a characteristic pro-inflammatory phenotype and prolongation of cell lifespan [Lee, A.; Whyte, M. K. B.; Haslett, C. J. Leukoc. Biol. 1993, 54, 283].
The anti-inflammatory activity of AD-B-63B was measured by the estimation of intracellular tumor necrosis factor alpha (TNF-α) expression in a gated population of neutrophils [Clara, B., R. C. Arancha, G. M. Andre's, P. Atanasio, A. Julia, and O. Alberto. 2003. A new method for detecting TNF-α-secreting cells using direct immunofluorescence surface membrane stainings. J. Immuno. Methods 264:77-87.]. Murine blood was subjected to centrifugation at 250× g for 20 min. Three layers were formed: an upper layer of platelet-rich plasma, a buffy coat middle layer and a lower layer formed of red blood cells. The middle layer was removed and subjected to Histopaque 1077 (Sigma) gradient separation. The upper layer containing neutrophils was removed and transferred to FACS tubes (Becton Dickinson). Lipopolysaccharide (LPS) derived from Escherichia coli (Sigma) was added at a concentration of 10 ng/ml for the stimulation of the cells. AD-B-63B was added at graded concentrations of 0.5, 1, 2.5, 5, 10 and 20 μg/ml. Samples were incubated for 3 h at 37° C. ( Table 1) Controls consisted of LPS-stimulated cells (LPS control). Further processing was done by the addition of FACS permeabilizing solution (Becton Dickinson), followed by the addition of phycoerythrin (PE)-labeled anti-mouse TNF-α. (Becton Dickinson). The cells were incubated in the dark, and after being washed with sterile PBS, samples were resuspended in PBS (pH 7.4) and acquired directly on the flow cytometer (FACS CANTO; Becton Dickinson). A fluorescence trigger was set on the […] parameter of the gated neutrophil populations (10,000 events). Rolipram at 100 μg/ml was used as standard inhibitor of TNF-α in this study. Fluorescence compensation, data analysis and data presentation were performed using software (Becton Dickinson) (FIG. 1) [Pandey A, Bani S, Kaul S, Sangawan P L; 2010, Selective Th1 upregulation by ethyl acetate fraction of Labisia pumila; 132 (2010) 309-315].

Assay [2] concerns TNF-α. Briefly: In vivo TNF-α estimation in serum of LPS challenged mice. On the set-up: species or system balb/c mice. Particulars: 1, 2.5, 5 and 10 mg/kg oral for 6 days, LPS 1 mg/kg i.v., serum 90 min after LPS. The protocol: Invivo experiments were carried out using balb/c mice that were orally administrated with graded oral doses of AD-B-63B (1, 2.5, 5 and 10 mg/kg) for 6 days and challenged with LPS. Nitric oxide (NO) is an important mediator of diverse physiologic and pathologic processes, including many inflammatory diseases [Abramson S B, Amin A R, Clancy R M, Attur M, (2001). The role of nitric oxide in tissue destruction. Best Practice & Research Clinical Rheumatology; 15: 831-845]. Several lines of evidence implicate NO in the pathogenesis of inflammation. For example, rodents in animal models of arthritis generate abundant quantities of NO, as reflected in high levels of serum and urinary NO that develop in association with disease manifestations [Stefanovic-Racic M, Meyers K, Meschter C, Coffey J W, Hoffman R A, Evans C H, (1994). Monomethyl arginine, an inhibitor of nitric oxide synthase, suppresses the development of adjuvant arthritis in rats. Arthritis & Rheumatism; 37: 1062-1069.] [McCartney-Francis N, Allen J B, Mizel D E, Albina J E, Xie Q W, Nathan C F, Wahl S M, (1993). Suppression of arthritis by an inhibitor of nitric oxide synthase. Journal of Experimental Medicine; 178: 749-754.] [Weinberg J B, (1998). […] TNF-α, IL-1 beta and Nitric oxide production was evaluated by a commercial ELISA kits (R&D Systems) in serum from AD-B-63B treated mice, 90 min after LPS injection.

For `CC(=O)OC(C)(C)/C=C/C(=O)[C@](C)(O)[C@H]1[C@H](O)C[C@@]2(C)[C@@H]3CC=C4[C@@H](C=C(O[C@@H]5O[C@H](CO)[C@@H](O)[C@H](O)[C@H]5O)C(=O)C4(C)C)[C@]3(C)C(=O)C[C@]12C` [AD-B-63B, 2-O-β-D-glucopyranosyl cucurbitacin E], the “expression of intracellular IL-4” value in the assay on IL-4 is on record as “decrease”. The “% TNF-alpha inhibition against LPS control” value is 13.01↓ % in the assay on TNF-α [1] (0.5 μg/ml), 24.16↓ % in the assay with TNF-α [1] (1.0 μg/ml), 50.55% with TNF-α [1] (5.0 μg/ml) and 60.59% in the assay with TNF-α [1] (10.0 μg/ml). Further, the “Expression of intracellular TNF-alpha, Mean ± S.E” value in the assay with TNF-α [1] (0.5 μg/ml) is listed as 2.34 ± 0.07; in the assay on TNF-α [1] (1.0 μg/ml), 2.04 ± 0.06; in the assay with TNF-α [1] (5.0 μg/ml), 1.33 ± 0.06; with TNF-α [1] (10.0 μg/ml) it was 1.06 ± 0.03; with TNF-α [1] ([…]), 1.84 ± 0.03. The “Level of serum TNF-α” value in the assay with TNF-α [2] is “significant reduction”.
